Experimental data as given in ChEMBL document CHEMBL1145370, “Alpha-methylation at benzylic fragment of N-aryl-N'-benzyl ureas provides TRPV1 antagonists with better pharmacokinetic properties and higher efficacy in inflammatory pain model” (Bioorg Med Chem Lett, 2007).

Legend:
[1] = Half life in dog at 10 umol/kg, iv; type: ADME, organism-based, Canis lupus familiaris; details: in vivo
[2] = Half life in rat at 10 umol/kg, iv; type: ADME, organism-based; details: in vivo
[3] = Bioavailability in dog at 10 umol/kg, po; type: ADME, organism-based, Canis lupus familiaris; details: in vivo
[4] = Volume of distribution in rat at 10 umol/kg, iv; type: ADME, organism-based; details: in vivo, read-out: Vbeta
[5] = Volume of distribution in dog at 10 umol/kg, iv; type: ADME, organism-based, Canis lupus familiaris; details: in vivo, read-out: Vbeta
[6] = Plasma clearance in dog at 10 umol/kg, iv; type: ADME, organism-based, Canis lupus familiaris
[7] = Plasma clearance in rat at 10 umol/kg, iv; type: ADME, organism-based
[8] = target: Transient receptor potential cation channel subfamily V member 1 (Homo sapiens, UniProt Q8NER1); experiment: Antagonist activity at human TRPV1 by calcium influx assay; type: functional
[9] = Bioavailability in rat at 10 umol/kg, po; type: ADME, organism-based; details: in vivo

Sequence of Transient receptor potential cation channel subfamily V member 1 (Q8NER1 whole entry): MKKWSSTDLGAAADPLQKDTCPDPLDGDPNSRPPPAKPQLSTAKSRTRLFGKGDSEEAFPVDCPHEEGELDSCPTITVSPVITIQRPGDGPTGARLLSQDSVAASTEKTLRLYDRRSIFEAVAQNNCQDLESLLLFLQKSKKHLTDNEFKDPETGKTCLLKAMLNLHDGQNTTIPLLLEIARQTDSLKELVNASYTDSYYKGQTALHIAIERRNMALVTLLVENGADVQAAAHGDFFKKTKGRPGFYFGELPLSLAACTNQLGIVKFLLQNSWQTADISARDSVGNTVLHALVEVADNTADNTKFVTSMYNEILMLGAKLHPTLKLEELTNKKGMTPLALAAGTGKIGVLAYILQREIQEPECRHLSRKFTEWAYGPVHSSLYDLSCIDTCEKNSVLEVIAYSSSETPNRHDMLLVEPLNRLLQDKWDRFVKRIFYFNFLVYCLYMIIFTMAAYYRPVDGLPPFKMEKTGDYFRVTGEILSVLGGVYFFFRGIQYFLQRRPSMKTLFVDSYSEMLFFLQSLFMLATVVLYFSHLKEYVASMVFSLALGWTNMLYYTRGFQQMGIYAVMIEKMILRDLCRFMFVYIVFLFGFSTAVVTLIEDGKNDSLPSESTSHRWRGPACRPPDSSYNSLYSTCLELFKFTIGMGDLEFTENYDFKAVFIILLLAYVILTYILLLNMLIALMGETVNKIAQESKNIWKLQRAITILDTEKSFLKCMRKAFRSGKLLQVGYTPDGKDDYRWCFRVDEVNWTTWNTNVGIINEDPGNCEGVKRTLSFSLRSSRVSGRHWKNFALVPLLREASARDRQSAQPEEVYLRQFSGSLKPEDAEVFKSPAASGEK

IC50 [8] [nM] | other results | SMILES
 | half-life [1]: 1 h; half-life [2]: 0.6 h; bioavailability [3]: 32%; Vd [4]: 0.6 L/kg; Vd [5]: 0.5 L/kg; clearance [6]: 6.67 mL/min/kg; clearance [7]: 10 mL/min/kg | O=C(NCc1ccc(C(F)(F)F)cc1)Nc1cccc2cnccc12
24 |  | CC(NC(=O)Nc1cccc2cnccc12)c1ccc(C(C)(C)C)cc1 (stereo not given)
19 |  | CC(NC(=O)Nc1cccc2cnccc12)c1ccc(C(F)(F)F)c(F)c1 (stereo not given)
147 |  | O=C(Nc1cccc2cnccc12)NC(c1ccccc1)c1ccc(C(F)(F)F)cc1 (stereo not given)
171 |  | O=C(Nc1cccc2cnccc12)NC(c1ccccc1)c1ccc(N2CCCCC2)cc1 (stereo not given)
46 |  | Cc1cc(C(C)(C)C)ccc1C(C)NC(=O)Nc1cccc2cnccc12 (stereo not given)
20 |  | CCc1cc(C(C)(C)C)ccc1C(C)NC(=O)Nc1cccc2cnccc12 (stereo not given)
17 |  | CC(NC(=O)Nc1cccc2cnccc12)c1ccc(C(C)(C)C)cc1C(C)(C)C (stereo not given)
2580 |  | CCC(NC(=O)Nc1cccc2cnccc12)c1ccccc1 (stereo not given)
15900 |  | N#CCC(NC(=O)Nc1cccc2cnccc12)c1ccccc1 (stereo not given)
149 |  | O=C(Nc1cccc2cnccc12)NC(c1ccc(C(F)(F)F)cc1)C1CC1 (stereo not given)
287 |  | O=C(Nc1cccc2cnccc12)NC(c1ccc(C(F)(F)F)cc1)C1CCCCC1 (stereo not given)
143 |  | CC(C)(NC(=O)Nc1cccc2cnccc12)c1ccc(Cl)cc1
94 |  | CC(C)(NC(=O)Nc1cccc2cnccc12)c1ccc(C(F)(F)F)cc1
41 | half-life [2]: 2.1 h; Vd [4]: 2.9 L/kg; bioavailability [9]: 53% | C[C@@H](NC(=O)Nc1cccc2[nH]ncc12)c1ccc(C(F)(F)F)cc1
749 |  | Cc1ccc([C@H](C)NC(=O)Nc2cccc3[nH]ncc23)cc1
3750 |  | C[C@H](NC(=O)Nc1cccc2[nH]ncc12)c1cccc2ccccc12
22 | half-life [1]: 1.6 h; half-life [2]: 1.1 h; bioavailability [3]: 98%; Vd [4]: 1.1 L/kg; Vd [5]: 1.1 L/kg; clearance [6]: 8.33 mL/min/kg; bioavailability [9]: 47%; clearance [7]: 11.7 mL/min/kg | CC(NC(=O)Nc1cccc2cnccc12)c1ccc(C(F)(F)F)cc1 (stereo not given)
31000 |  | CN(C)CC(NC(=O)Nc1cccc2cnccc12)c1ccccc1 (stereo not given)
476 |  | O=C(Nc1cccc2cnccc12)NC(c1ccc(C(F)(F)F)cc1)C1CCCC1 (stereo not given)
248 |  | C[C@H](NC(=O)Nc1cccc2[nH]ncc12)c1ccc(C(F)(F)F)cc1
123 |  | C[C@@H](NC(=O)Nc1cccc2[nH]ncc12)c1cccc2ccccc12
73 |  | Cc1ccc([C@@H](C)NC(=O)Nc2cccc3[nH]ncc23)cc1
125 |  | CC(C)(C)c1ccc(C(NC(=O)Nc2cccc3cnccc23)c2ccccc2)cc1 (stereo not given)
600 |  | O=C(Nc1cccc2cnccc12)NC(c1ccccc1)c1ccccc1
109 |  | CCC(NC(=O)Nc1cccc2cnccc12)c1ccc(C(F)(F)F)c(F)c1 (stereo not given)
26 |  | CC(NC(=O)Nc1cccc2cnccc12)c1ccc(Br)cc1 (stereo not given)
47 |  | CC(NC(=O)Nc1cccc2[nH]ncc12)c1ccc(C(F)(F)F)cc1 (racemic)
